From PMC9693141 (Molecules, 2022)
Where two headings read alike, the source gives them in different places.

Columns and labels:
[1] = tested on: L. infantum axenic amastigotes; assay: In vitro antileishmanial evaluation on axenic amastigotes (resazurin viability); format: cell-based, Leishmania infantum; settings: 72 h incubation then resazurin 24 h, triplicate, three independent experiments, read-out: L. infantum Axenic Amastigotes IC50 (µM) ± S.D.
Description: Cultures of axenic amastigotes of L. infantum were adapted from. Briefly, axenic amastigotes of L. infantum were obtained from late log promastigotes diluted at 1 × 10^6/mL in M199 complete medium acidified at pH 5.5 and cultured at 37 °C with 5% CO2.
The evaluations of activity on axenic amastigotes were adapted from the protocols previously described. […] Cell viability was then monitored as described above. The activity of the compounds was expressed as IC50, which was determined by nonlinear regression using GraphPad Prism 7.0.

[2] = tested on: L. infantum intramacrophagic amastigotes; assay: In vitro antileishmanial evaluation on intramacrophage amastigotes in RAW264.7 macrophages (Giemsa counting); format: cell-based, Leishmania infantum; settings: infected RAW264.7 macrophages, 48 h of treatment, amastigotes per macrophage counted, read-out: L. infantum Intramacrophagic Amastigotes IC50 (µM) ± S.D.
Description: Promastigotes of Leishmania infantum (MHOM/FR/2008/LEM5700) were cultured in the dark at 26 °C with 5% CO2 in M199 complete medium containing M199 medium supplemented with adenosine (100 µM), hemin (0.5 mg/L), Hepes (40 mM) pH 7.4, and heat-inactivated fetal bovine serum (10%; HIFBS). Cultures of axenic amastigotes of L. infantum were adapted from. Briefly, axenic amastigotes of L. infantum were obtained from late log promastigotes diluted at 1 × 10^6/mL in M199 complete medium acidified at pH 5.5 and cultured at 37 °C with 5% CO2.
(§1) The RAW 264.7 macrophages (ATCC) were cultured at 37 °C with 5% CO2 in DMEM complete medium containing Dulbecco’s Modified Eagle’s Medium (DMEM, Invitrogen, Thermo-Fisher, Villebon-sur-Yvette, France) supplemented with penicillin-streptomycin (100 U/mL; Invitrogen) and heat-inactivated fetal bovine serum (10%; HIFBS).
Concerning the evaluation on intramacrophage amastigotes, the determination of the cytotoxicity as presented above was necessary to use the highest drug concentrations to be studied on the intramacrophage amastigote model. The evaluation on the intracellular form on the parasite was performed as previously described. RAW264.7 macrophages were plated in 16-well Lab-Tek chamber slides (Thermo-Fisher Villebon-sur-Yvette, France) at a density of 2 × 10^4 cells per well and incubated for 24 h at 37 °C with 5% CO2. Axenic amastigotes were differentiated as described above, centrifuged at 2000× g for 10 min, resuspended in DMEM complete medium, and added to each well to reach a 16:1 parasite to macrophage ratio. After 24 h of infection at 37 °C with 5% CO2, extracellular parasites were removed, and DMEM complete medium (100 µL) containing two-fold serial dilutions of the compounds, from 100 µM to 0.049 µM, was added to each well. A positive control treated with 1% DMSO was added to each Lab-tek chamber slide. After 48 h of treatment, the medium was removed and cells were fixed in methanol for 1 min, stained in 10% Giemsa (Merck, Guyancourt, France) for 5 min, and further rinsed in water before observation in phase contrast at the microscope (Olympus CX31; Olympus, Rungis, France). The number of amastigotes was counted by two independent experimenters for a total of 300 macrophages per well and the ratio of amastigotes per macrophage was determined for each condition. This ratio was further compared with the one of the positive controls, considered as 100%, to determine a percentage of inhibition (% I), as follows: % I = 100 − [(ratio of amastigotes per macrophage in treated cells/ratio of amastigotes per macrophages in untreated cells) × 100]. The activity of the compounds was expressed as IC50, which was determined by nonlinear regression using GraphPad Prism 7.0. […] In vitro antileishmanial evaluations were performed in triplicate in three independent experiments.

RAW 264.7 macrophages = assay: In vitro cytotoxicity on RAW 264.7 macrophages (resazurin); format: cell-based; settings: 48 h of incubation, read-out: Cytotoxicity on RAW 264.7 CC50 (µM) ± S.D.
Description: as §1
Cells were plated in 96-well microplates at a density of 2 × 10^4 cells per well. […] In living cells, resazurin is reduced in resorufin, and this conversion is monitored by measuring OD570nm (resorufin) and OD600nm (resazurin; multimode microplate reader Spark®, Tecan, Lyon, France). […] In vitro cytotoxicity assays were performed in triplicate in three independent experiments.

## CC(C)=CCCC1(C)C=Cc2c(c3ccccc3n(CCCCC(=O)O)c2=O)O1 (stereo not shown) [Compound 15l, 5-(2-Methyl-2-(4-methylpent-3-en-1-yl)-5-oxo-2H-pyrano [3,2-c]quinolin-6(5H)-yl)pentanoic acid]
[1]; Leishmania infantum
  IC50: 16.4 ± 1.7 µM
[2]; Leishmania infantum
  IC50: > 100 µM

## CCCCCn1c(=O)c2c(c3ccccc31)OC(C)(CCC=C(C)C)C=C2 (stereo not shown) [Compound 15g, 2-Methyl-2-(4-methylpent-3-en-1-yl)-6-pentyl-2,6-dihydro-5H-pyrano [3,2-c]quinolin-5-one]
[1]; Leishmania infantum
  IC50: 82.7 ± 6.5 µM
[2]; Leishmania infantum
  IC50: 29.5 ± 9.9 µM
RAW 264.7 macrophages
  CC50: > 100 µM

## Cn1c(=O)c2c(c3ccccc31)OC1(C)CCCC(C)(C)C1=C2 (stereo not shown) [Compound 11, 5,8,8,11a-Tetramethyl-5,8,9,10,11,11a-hexahydro-6H-chromeno [3,2-c]quinolin-6-one]
[1]; Leishmania infantum
  IC50: > 100 µM
[2]; Leishmania infantum
  IC50: 14.7 ± 1.6 µM

## CC(C)=CCCC1(C)C=Cc2c(c3ccccc3n(CCc3ccccc3)c2=O)O1 (stereo not shown) [Compound 15f, 2-Methyl-2-(4-methylpent-3-en-1-yl)-6-phenethyl-2,6-dihydro-5H-pyrano [3,2-c]quinolin-5-one]
[1]; Leishmania infantum
  IC50: 9.8 ± 2.9 µM
[2]; Leishmania infantum
  IC50: > 50 µM

## COCCn1c(=O)c2c(c3ccccc31)OC(C)(CCC=C(C)C)C=C2 (stereo not shown) [Compound 15d, 6-(2-Methoxyethyl)-2-methyl-2-(4-methylpent-3-en-1-yl)-2,6-dihydro-5H-pyrano [3,2-c]quinolin-5-one]
[1]; Leishmania infantum
  IC50: 17.8 ± 2.3 µM
[2]; Leishmania infantum
  IC50: > 25 µM

## Zanthosimuline [Compound 7]
[1]
  IC50: 29.1 ± 1 µM
[2]
  IC50: > 100 µM

## COc1cccc(Cn2c(=O)c3c(c4ccccc42)OC(C)(CCC=C(C)C)C=C3)c1 (stereo not shown) [Compound 15b, 6-(3-Methoxybenzyl)-2-methyl-2-(4-methylpent-3-en-1-yl)-2,6-dihydro-5H-pyrano [3,2-c]quinolin-5-one]
[1]; Leishmania infantum
  IC50: 15 ± 1.7 µM
[2]; Leishmania infantum
  IC50: > 25 µM

## CC(C)=CCCC1(C)C=Cc2c(c3ccccc3n(S(=O)(=O)c3ccccc3)c2=O)O1 (stereo not shown) [Compound 15h, 2-Methyl-2-(4-methylpent-3-en-1-yl)-6-(phenylsulfonyl)-2,6-dihydro-5H-pyrano [3,2-c]quinolin-5-one]
[1]; Leishmania infantum
  IC50: > 100 µM
[2]; Leishmania infantum
  IC50: > 100 µM

## CC(C)=CCCC1(C)C=Cc2c(c3ccccc3n(Cc3ccccc3)c2=O)O1 (stereo not shown) [Compound 15a, 6-Benzyl-2-methyl-2-(4-methylpent-3-en-1-yl)-2,6-dihydro-5H-pyrano [3,2-c]quinolin-5-one]
[1]; Leishmania infantum
  IC50: 16.8 ± 1.8 µM
[2]; Leishmania infantum
  IC50: 23.7 ± 6.5 µM

## COC(=O)CCCCn1c(=O)c2c(c3ccccc31)OC(C)(CCC=C(C)C)C=C2 (stereo not shown) [Compound 15k, Methyl 5-(2-methyl-2-(4-methylpent-3-en-1-yl)-5-oxo-2H-pyrano [3,2-c]quinolin-6(5H)-yl)pentanoate]
[1]; Leishmania infantum
  IC50: 14.6 ± 2.1 µM
[2]; Leishmania infantum
  IC50: 19 ± 2.2 µM

## Cn1c(=O)c2c(c3ccccc31)OC1(C)CCC3C1C2C3(C)C (stereo not shown) [Compound 12, 1,1,3a,9-Tetramethyl-1,1a,1a1,2,3,3a,9,10b-octahydro-10H-4-oxa-9-azacyclobuta [7,1]indeno [5,6-a]naphthalen-10-one]
[1]; Leishmania infantum
  IC50: 42.6 ± 2.1 µM
[2]; Leishmania infantum
  IC50: > 50 µM

## Cn1c(=O)c2c(c3ccccc31)OC(C)(C)C1CCC(C)(O)C(Cl)C21 (stereo not shown) [Compound 3, Chloroaustralasine A]
[1]
  IC50: 8.1 ± 1.4 µM
[1]; Leishmania infantum
  IC50: 8 µM
[2]; Leishmania infantum
  IC50: > 50 µM

## CCCCCCCCCCCCCCCCOP(=O)([O-])OCC[N+](C)(C)C [Miltefosine, reference compound]
[1]; Leishmania infantum
  IC50: 1 ± 0.3 µM
[2]; Leishmania infantum
  IC50: 6.7 ± 1.7 µM

## CC(C)=CCCC1(C)C=Cc2c(c3ccccc3[nH]c2=O)O1 (stereo not shown) [Compound 14, 2-Methyl-2-(4-methylpent-3-en-1-yl)-2,6-dihydro-5H-pyrano [3,2-c]quinolin-5-one]
[1]; Leishmania infantum
  IC50: 15.6 ± 1.8 µM
[2]; Leishmania infantum
  IC50: > 100 µM

## CC(C)=CCCC1(C)C=Cc2c(c3ccccc3n(Cc3ccccn3)c2=O)O1 (stereo not shown) [Compound 15c, 2-Methyl-2-(4-methylpent-3-en-1-yl)-6-(pyridin-2-ylmethyl)-2,6-dihydro-5H-pyrano [3,2-c]quinolin-5-one]
[1]; Leishmania infantum
  IC50: 14.2 ± 4.3 µM
[2]; Leishmania infantum
  IC50: > 25 µM

## CC1(O)CCC2C(c3c(c4ccccc4[nH]c3=O)OC2(C)C)C1Cl (stereo not shown) [Compound 4]
[1]; Leishmania infantum
  IC50: 18.6 ± 2.5 µM
[2]; Leishmania infantum
  IC50: > 6.25 µM

## CC1(C)CCCC2(C)Oc3c(c(=O)n(Cc4ccccc4)c4ccccc34)C=C12 (stereo not shown) [Compound 16a, 5-Benzyl-8,8,11a-trimethyl-5,8,9,10,11,11a-hexahydro-6H-chromeno [3,2-c]quinolin-6-one]
[1]; Leishmania infantum
  IC50: 7 ± 2.1 µM
[2]; Leishmania infantum
  IC50: > 25 µM

## CC(C)=CCCC1(C)C=Cc2c(c3ccccc3n(C(=O)OC(C)(C)C)c2=O)O1 (stereo not shown) [Compound 15j, tert-Butyl 2-methyl-2-(4-methylpent-3-en-1-yl)-5-oxo-2H-pyrano [3,2-c]quinoline-6(5H)-carboxylate]
[1]; Leishmania infantum
  IC50: 9.1 ± 0.4 µM
[2]; Leishmania infantum
  IC50: > 25 µM

## CC(C)=CCCC1(C)C=Cc2c(c3ccccc3n(C(=O)Oc3ccccc3)c2=O)O1 (stereo not shown) [Compound 15i, Phenyl 2-methyl-2-(4-methylpent-3-en-1-yl)-5-oxo-2H-pyrano [3,2-c]quinoline-6(5H)-carboxylate]
[1]; Leishmania infantum
  IC50: 12.9 ± 3.2 µM
[2]; Leishmania infantum
  IC50: > 15 µM
